According to article PMC3422893 (Journal of medicinal chemistry, 2011):

Legend:
H1703 cells = test: H1703 non-small cell lung cancer xenograft model; assay type: in vivo, athymic NCr-nu/nu mice; conditions: three times a week for 3 weeks
H1703 xenograft tumors = test: H&E staining and immunohistochemistry of xenograft tumors; assay type: in vivo, athymic NCr-nu/nu mice
ATF3 = test: Western blot of ATF3 protein in H1703 cells; assay type: cell-based, human
SAPK/JNK = test: Western blot of SAPK/JNK pathway activation in H1703 cells; assay type: cell-based, human
PARP = test: Western blot of PARP cleavage; assay type: cell-based, human; conditions: H1703 cells, 1 µM, 1, 4, or 6 h

**Q.** With `CCOC(=O)N1CCN(/[N+]([O-])=N/Oc2cc(C)c([N+](=O)[O-])cc2[N+](=O)[O-])CC1` [Compound 6, O^2-(2,4-Dinitro-5-methylphenyl) 1-[(4-Ethoxycarbonyl)piperazin-1-yl]diazen-1-ium-1,2-diolate] as the compound, how does the “growth of H1703 cells in vivo” value (H1703 cells; 8 µmol/kg i.v.) read?
**A.** The value was “did not result in reduction in H1703 tumor growth in vivo”.

**Q.** And the “ATF3 protein level in tumors, immunohistochemistry” value (H1703 xenograft tumors; 8 µmol/kg i.v.)?
**A.** The value was “comparable to that of the control”.

**Q.** What about the “P-SAPK/JNK in tumors, immunohistochemistry” value (H1703 xenograft tumors; 8 µmol/kg i.v.) of the same compound?
**A.** Its value is “did not stain for P-SAPK/JNK”.

**Q.** With `CCOC(=O)N1CCN(/[N+]([O-])=N/Oc2ccc([N+](=O)[O-])cc2[N+](=O)[O-])CC1` [Compound 1, O^2-(2,4-dinitrophenyl) 1-[(4-ethoxycarbonyl)piperazin-1-yl]diazen-1-ium-1,2-diolate] as the compound, how does the ATF3 protein expression (ATF3; 1 µM) read?
**A.** Its ATF3 protein expression is “induced”.

**Q.** What about the “SAPK/JNK activation (phosphorylation)” value (SAPK/JNK) of the same compound?
**A.** The value was “caused SAPK/JNK activation”.

**Q.** And the “time to detection of SAPK/JNK phosphorylation” value (SAPK/JNK; 1 µM)?
**A.** Its value is ≤ 30 min.

**Q.** And the “growth of H1703 cells in vivo” value (H1703 cells; 6 µmol/kg i.v.)?
**A.** Its value is “significantly reduced growth”.

**Q.** What about the “ATF3 protein level in tumors, immunohistochemistry” value (H1703 xenograft tumors; 6 µmol/kg i.v.) of the same compound?
**A.** Its value is “upregulation in ATF3 protein level”.

**Q.** What about the “P-SAPK/JNK in tumors, immunohistochemistry” value (H1703 xenograft tumors; 6 µmol/kg i.v.) of the same compound?
**A.** Its value is “phosphorylation of SAPK/JNK”.

**Q.** What about the “tissue death in tumors, H&E staining” value (H1703 xenograft tumors; 6 µmol/kg i.v.) of the same compound?
**A.** The value was “significant tissue death”.

**Q.** And the “cleavage of PARP” value (PARP)?
**A.** The value was “resulted in cleavage of PARP”.

**Q.** With `O=S(=O)(O)c1cc(O)c(O)c(S(=O)(=O)O)c1` [Tiron, reference compound] as the compound, how does the “effect on SAPK/JNK phosphorylation resulting from 1 or 2” value (SAPK/JNK; pretreatment 10 mM for 1 h, then 30-min incubation with 1 or 2) read?
**A.** Its value is “attenuated SAPK/JNK phosphorylation”.

**Q.** `O=C1c2ccccc2-c2n[nH]c3cccc1c23` [1,9-pyrazoloanthrone, reference compound] was tested. Which “effect on 1-induced ATF3 upregulation” value (ATF3; pretreatment 50 µM, 30 min) did it give?
**A.** The value was “partially blocked”.

**Q.** What about the “effect on 1-induced activation of ATF2 and c-jun” value (SAPK/JNK; pretreatment 50 µM, 30 min) of the same compound?
**A.** The value was “inhibited”.
